US20250302306A1, “TUMOR TARGETING PROBE FOR IMAGE GUIDED SURGICAL METHODS” (priority 2021, published 2025)

How the values were obtained:
[1] = tested on: MDA-MB-231 human breast cancer tumors; assay: In vivo kinetic analysis: tumor/normal tissue NIR signal ratio (TBR); set-up: species or system athymic mice
Method: Since fluorescent imaging techniques rely on the concentration of each contrast agent, the optimum dose range for ICG-p28 in mice with MDA-MB-231 human breast cancer tumors was determined with the PDE unit. Each mouse was injected i.v. with ICG-p28 or ICG alone at 0.2-1.0 mg/kg (˜50 to 250 nM). The mice were imaged at various time points (6-72 hr), and the ratio of the NIR signal intensity of the tumor tissue and normal tissue (thigh) was calculated.
ICG-p28 or ICG alone was injected intravenously (i.v.) (tail vein) at 0.2, 0.5, or 1 mg/kg-b.w. Animals were imaged using an Odyssey scanner (LI-COR Biosciences) at 6-72 hr post i.v. administration. The tumor background ratio (TBR) was determined using ImageJ software (National Institutes of Health), where a region of interest (ROI) was drawn over the whole tumor and a background ROI was drawn over adjacent tissue. An ROI was manually generated around each tumor (800 nm channel).

[2] = ICG as used in clinical practice; cited from earlier work
TNBC PDX tumors [3] = assay: Histological analysis (H&E, Ki-67) of tumor margin samples; format: in vivo, NSG mice; conditions: H&E and Ki67 staining of margin samples
Method: We next performed traditional histological analyses with H&E and proliferative marker Ki67 staining on the set of tumor margin samples that were used for the Alu PCR assays.
Resected tissues were placed in containers prefilled with buffered 3.7% formalin (Anatech) and fixed for 24 hr. Formalin was replaced with 70% ethanol following fixation. Samples were paraffin-embedded, and blocks were cut into 4 μm-thick sections and mounted onto slides. H&E- and Ki-67-stained slides were analyzed by a pathologist blinded to the experimental groups and surgical resection results. The pathologist was responsible for determining a tumor's presence, margin status, and general characteristics of resected tissues.

TNBC PDX tumors [4] = assay: Tumor recurrence follow-up after image-guided surgery in PDX model; format: in vivo, NSG mice
Method: Each agent was injected i.v. (tail vein) with the corresponding compound at the equivalent of ICG-p28 0.5 mg/kg-b.w. Twenty-four hours after injection, all surgical procedures were started under sterile conditions. Following anesthesia administration, the PDE imaging system was used to monitor NIR fluorescence throughout the entire surgical procedure. Tumors with a 2-mm safety margin and the surrounding mammary tissues at the 6 and 12 o'clock positions were removed in real time under guidance of the PDE imaging system. […] Following tumor excision, the skin incisions were closed using a nylon suture, and the mice were returned to their cages. After tumor resection, the mice were kept in their cages for an additional four weeks and monitored for tumor recurrence. Tumor recurrence was monitored by palpitation of the surgical area. Four weeks after surgery, the mice were evaluated to determine whether any of the tumors had recurred due to remnant positive margins at the resection site.

[5] = tested on: MDA-MB-231 or IOWA-IT orthotopic MFP xenograft tumors; assay: Intraoperative imaging of orthotopic xenografts, tumor recurrence follow-up
[6] = tested on: multiple breast cancer animal models
MDA-MB-231-iRFP tumors = assay: Tumor margin assessment: colocalization with tumor marker iRFP, ex vivo Odyssey scan; format: in vivo, athymic mice; conditions: 0.5 mg/kg i.v., 24 hr
Method: In FIG. 3B, Athymic mice bearing MDA-MB-231-iRFP tumors were injected i.v. with either ICG-p28 or ICG alone at 0.5 mg/kg. Twenty-four hours after injection, representative ex vivo images of the tumour and surrounding soft tissues for the ICG-p28 group (top row) and the ICG alone group (bottom row) were taken with an Odyssey scanner. The dotted line in the images indicates the outer edge of the soft tissue. iRFP (red: 700 nm); ICG-p28 or ICG (green: 800 nm); and colocalization (yellow-orange). In FIG. 3C, Concordance rate of the fluorescent signal in each group [the ICG-p28 group (n=10) and the ICG alone group (n=5)]; **: P<0.01.
ICG-p28 or ICG alone at 0.5 mg/kg was injected i.v. into athymic mice inoculated with MDA-MB-231-iRFP cells; 24 hr later, the xenografted tumors and surrounding tissues were removed.
MDA-MB-231-iRFP cells (1.0×10^6 cells in 0.1 ml PBS) were inoculated s.c. into the right back of mice. Once mice developed tumors (˜200 mm^3), they were injected i.v. with ICG-p28 or ICG at 0.5 mg/kg-b.w. Twenty-four hours after injection, tumors and the surrounding tissue were resected. Specimens were imaged ex vivo with an Odyssey scanner with the 700 nm channel for iRFP and the 800 nm channel for ICG-p28 or ICG alone. The area measurements were performed using ImageJ. The mean±SD values were calculated.

TNBC PDX tumors [7] = assay: Detection of residual cancer cells in the tumor margin by huAlu PCR; format: in vivo, NSG mice; conditions: equivalent of ICG-p28 0.5 mg/kg i.v., margins at 6 and 12 o'clock
Method: During image-guided surgery, tumors with a 2-mm safety margin and the surrounding mammary tissues at the 6 and 12 o'clock positions were removed in real time under guidance of the PDE imaging system (FIG. 6A). These samples were collected to undergo huAlu PCR as well as traditional histological analyses.
Each agent was injected i.v. (tail vein) with the corresponding compound at the equivalent of ICG-p28 0.5 mg/kg-b.w. Twenty-four hours after injection, all surgical procedures were started under sterile conditions. Following anesthesia administration, the PDE imaging system was used to monitor NIR fluorescence throughout the entire surgical procedure. […] After tumor resection, the mice were kept in their cages for an additional four weeks and monitored for tumor recurrence. Tumor recurrence was monitored by palpitation of the surgical area. Four weeks after surgery, the mice were evaluated to determine whether any of the tumors had recurred due to remnant positive margins at the resection site.
A quantitative analysis using human-specific Alu sequence (huAlu) was performed on samples collected from the margins. […] We standardized the quantitative detection of huAlu in resected tumors and surrounding margin tissues according to previously published methods. […] The mean±SD values were calculated.

[8] = tested on: advanced solid tumors; recurrent and refractory CNS tumors; conditions: human, in vivo; cited from earlier work

| Molecule | tumor/normal tissue ratio of NIR signal intensity ([1]; 0.2-1.0 mg/kg i.v., 24 hr, tumor vs thigh) | TBR ([1]; ICG alone, tumor site not distinguishable) | half-life [2] [min] | positive margin rate (TNBC PDX tumors [3]) [%] | tumor recurrence rate for the surgical site (TNBC PDX tumors [4]; four weeks after image-guided surgery) [%] | average volume of the recurrent tumors (TNBC PDX tumors [4]; four weeks after surgical resection) | adverse events related to administration during tumor removal ([5]; 0.5 mg/kg i.v.) | tumor recurrence at the surgical sites ([5]; 0.5 mg/kg i.v., four weeks after tumor resection) [%] | average volume of the recurrent tumors ([5]; four weeks after tumor resection) [mm3] | tumor recurrence rate overall ([6]; multiple models combined, N of 24) [%] | average recurrent tumor volume overall ([6]; multiple subtypes of breast cancer combined) | concordance rate of 700 and 800 nm NIR signals (MDA-MB-231-iRFP tumors) [%] | log (huAlu DNA/mGAPDH DNA) in surrounding tissues (TNBC PDX tumors [7]) | adverse effects, toxicity or immunogenicity [8] |
| --- | --- | --- | --- | --- | --- | --- | --- | --- | --- | --- | --- | --- | --- | --- |
| CC1(C)C(/C=C/C=C/C=C/C=C2\N(CCCCS(=O)(=O)O)c3ccc4ccccc4c3C2(C)C)=[N+](CCCCS(=O)(=O)[O-])c2ccc3ccccc3c21 [ICG alone, indocyanine green] | ~1 | ~1.1 | 2 to 4 | 19 | 50.0 | 1,952 mm^3 | no apparent adverse events | 25.0 | 423 | 33 | 1,188 mm^3 | 12 | −0.9 |  |
| p28: peptide derived from Pseudomonas aeruginosa azurin, amino acids 50-77 (SEQ ID NO: 5) |  |  |  |  |  |  |  |  |  |  |  |  |  | no significant adverse effects, toxicity or immunogenicity |
